Patent US20080311126A1, “Antisense Oligonucleotides Directed to Ribonucleotide Reducatase R2 and Uses Thereof in Combination Therapies for the Treatment of Cancer” (Genesense Technologies, Inc, priority 2004, published 2008)
“Also recorded” adds a separate entry of the source.

How the values were obtained:
Type in all cases: in vivo
[1] = system: Caki-1 human renal cancer cells; test: Caki-1 renal tumour xenograft in SCID mice, SEQ ID NO:1 and chemotherapeutics; conditions: Caki (renal); Mouse CD-1
Description: Caki-1 human renal cancer cells (1×10^7 cells in […] of PBS) were subcutanteously injected into the right flank of 6-7 weeks old female SCID mice. After the size of tumour reached an approximate volume of 200 mm^3, 7 days post tumour cell injection, SEQ ID NO:1 was administered by bolus infusion into the tail vein every other day at 10 mg/kg. Control animals received saline alone for the same period. The antitumour effect of SEQ ID NO:1 was further compared to that of two chemotherapeutic agents: 5-FU and vinblastine. 5-FU was administered intraperitoneally at days 7-13, 21-27 and 35-36 with a dose of 13 mg/kg/day, while vinblastin was administered intraperitoneally at days 7, 14, 21, 28 and 35 at a dose of 0.6 mg/kg/week. Antitumour effects of each of these compounds were further compared to those of SEQ ID NO:1 in combination with 5-FU or with vinblastin. The two chemotherapeutic agents were applied as described above, one hour after the treatments with SEQ ID NO:1 when combination treatments occurred on the same day. All treatments were stopped at day 36. A day after the last treatment, tumours were excised from the animals and their weights were measured.

[2] = system: MDA-MB-231 human breast cancer cells; test: MDA-MB-231 breast tumour xenograft in CD-1 nude mice
Description: MDA-MB-231 human breast cancer cells (1×10^7 cells in 100 μl of PBS) were subcutaneously injected into the right flank of 6-7 weeks old female CD-1 nude mice. After the size of tumour reached an approximate volume of 100 mm^3, 5 days post tumour cell injection, SEQ ID NO:1, or the scrambled control oligonucleotide (SEQ ID NO:3) were administered by bolus infusion into the tail vein every other day at 10 mg/kg. Control animals received saline alone for the same period. Antitumour effect of SEQ ID NO:1 was further compared to that of taxol or doxorubicin alone or in combination. Taxol was administered intravenously once a week at a dose of 10 mg/kg for three (FIG. 17A) or four weeks (FIG. 17C). Doxorubicin was administered intravenously once a week at a dose of 5 mg/kg for first three weeks (FIG. 17A) or for two weeks (FIG. 17C). All treatments were stopped at day 33 (FIG. 17A) or at day 26 (FIG. 17C), respectively. A day after the last treatment, tumours were excised from the animals and their weights were measured. […] In FIG. 17C, antitumour activities were estimated by the inhibition of tumour volume, which was measured with calipers. Each point represents mean tumour volume calculated from 10 animals per experimental group.

[3] = system: Hela S3 human cervix epitheloid carcinoma cells; test: Hela S3 hydroxyurea resistant cervix carcinoma xenograft in SCID mice
Description: Hela S3 human cervix epitheloid carcinoma cells (5×10^5 cells in 100 μl of PBS) were subcutaneously injected into the right flank of 6-7 weeks old female SCID mice. Hela S3 is a hydroxyurea resistant cell line. After the size of tumour reached an approximate volume of 100 mm^3, 3 days post tumour cell injection, SEQ ID NO:1 was administered by bolus infusion into the tail vein every other day at 10 mg/kg 6 times. Control animals received saline alone for the same period. Antitumour effect of SEQ ID NO:1 was further compared to that of Hydroxyurea or Cisplatin alone or in combination. Hydroxyurea was administered intraperitoneally every day at a dose of 250 mg/kg for 10 days. Cisplatin was administered intravenously once a week for three weeks at a dose of 4 mg/kg. Antitumour activities were estimated by the inhibition of tumour volume, which was measured with caliper. Each point represents mean tumour volume calculated from 10 animals per experimental group. […] As expected, treatment with Hydroxyurea during the same period was ineffective against Hydroxyurea-resistant tumour.

[4] = system: Caki-1 human renal carcinoma; test: Caki-1 renal tumour xenograft in SCID mice, SEQ ID NO:1 and interferon alpha
Description: Cell Line: Human renal carcinoma cell line (Caki-1) was grown as monolayer culture in Minimum essential medium (α-MEM) supplemented with 10% fetal bovine serum (FEBS), 0.1 mM non-essential amino acid, 1.0 mM sodium pyruvate, 100 U/ml penicillin, 100 μg/ml streptomycin and 0.25 μg/ml amphotericin B and 2 mM L-alanyl-L-glutamine at 37° C. in an atmosphere of 5% CO2 in air. The tumour cells were routinely subcultured twice weekly by trypsin-EDTA treatment. The cells were harvested from subconfluent logarithmically growing culture by treatment with trypsin-EDTA and counted for tumour inoculation.
Tumour Inoculation: An acclimation period of at least 7 days was allowed between animal receipt and commencement of tumour inoculation. When the female SCID mice were 6-7 weeks of age (20-25 g), each mouse was subcutaneously (s.c.) injected with 5×10^6 Caki-1 human renal carcinoma cells in 0.1 ml of PBS at the right flank of the mice to induce tumour growth.
Dose-Preparation and Treatment: The dose for SEQ ID NO:1 was formulated using the following procedure. From a concentrated stock solution (usually prepared in ddH2O at a concentration of 50 mg/ml and kept at −80° C.), SEQ ID NO:1 was diluted with saline to achieve a final target concentration of 1 or 2.5 mg/ml on the first day of dosing. Enough SEQ ID NO:1 was diluted so that the compound could be administered by bolus infusion into the tail vein every other day for the duration of the experiment. Recombinant interferon alfa-2b (Intron A™) was utilized according to the dose and treatment schedules below. The treatments were started 7 days after the tumour cell inoculation when the tumour size reached an approximate volume of 125 mm^3. Each treatment group contained 10 tumour-bearing mice. Routes of administration are indicated as follows: intravenous (i.v.) and intratumoural (i:t.).
Groups and Treatments: The following treatment groups were evaluated: • 1. Saline treated group-1: saline 0.1 ml/mouse/48 hours, i.v., n=10 • 2. Saline treated group-2: saline 0.05 ml/mouse/5 days/week, i.t., n=10 • 3. […] Intron A 10^3 unit/5 days/week treated group: 10^3 unit Intron A in 0.05 ml saline, i.t., n=10 • 6. Intron A 10^5 unit/5 days/week treated group: 10^5 unit Intron A in 0.05 ml saline, i.t., n=10 • 7. SEQ ID NO:1 1 mg/kg Plus Intron A 10^3 treated group: “3+5”, n=10 • 8. SEQ ID NO:1 1 mg kg Plus Intron A 10^5 treated group: “3+6”, n=10 • 9. SEQ ID NO:1 2.5 mg/kg Plus Intron A […], n=10 • 10. SEQ ID NO:1 2.5 mg/kg Plus Intron A 10^5 treated group: “4+6”, n=10
Mice received 25 treatments with SEQ ID NO:1 and 30 treatments with Intron A. The dosing schedule for Intron A was: treatment with Intron A for 3 consecutive weeks, 1 week off, and treatment with Intron A again for another 3 consecutive weeks. The dosing schedule for SEQ ID NO:1 was treatment with SEQ ID NO:1 every other day for the duration of the experiment.
(§1) Endpoints: The effects of SEQ ID NO:1 and Intron A on tumour growth were determined. Tumour sizes were measured every week from day 7 after the tumour cell inoculation in two dimensions using a caliper, and the volume was expressed in mm^3 using the formula: V=0.5 a×b^2, where a and b are the long and short diameters of the tumour, respectively. Mean tumour volumes calculated from each measurement were then plotted in a standard graph to compare the anti-tumour efficacy to that of controls. A day after the last treatment, tumours were excised from the animals and their weights were measured.
A second independent in vivo study was conducted as described in Example 1 utilizing SCID mice (female, 6 weeks old) and Caki-1 (human renal carcinoma cell line) to test the efficacy of SEQ ID NO:1 in combination with IFN alpha Briefly, 5×10^6 Caki-1 human renal carcinoma cells in 0.1 ml of PBS were injected subcutaneously at the right flank of the mice to induce tumour growth. Treatments started on the seventh day after tumour cell injection. […]

[5] = system: A498 human renal carcinoma; test: A498 renal tumour xenograft in SCID mice, SEQ ID NO:1 and interferon alpha
Description: Cell line: Human renal carcinoma cell line (A498) was grown as monolayer culture in Minimum essential medium (α-MEM) supplemented with 10% fetal bovine serum (FBS), 0.1 mM non-essential amino acid, 1.0 mM sodium pyruvate, 100 U/ml penicillin, 100 μg/ml streptomycin and 0.25 μg/ml amphotericin B and 2 mM L-alanyl-1-glutamine at 37° C. in an atmosphere of 5% CO2 in air. The tumour cells were routinely subcultured twice weekly by trypsin-EDTA treatment. The cells were harvested from subconfluent logarithmically growing culture by treatment with trypsin-EDTA and counted for tumour inoculation.
Tumour Inoculation: An acclimation period of at least 7 days was allowed between animal receipt and commencement of tumour inoculation. When the female SCID mice were 6-7 weeks of age (20-25 g), each mouse was subcutaneously injected with 9×10^6 A498 human renal carcinoma cells in 0.1 ml of PBS at the right flank of the mice to induce tumour growth.
Dose Preparation and Treatment: The dose for SEQ ID NO:1 was formulated using the following procedure. From a concentrated stock solution (usually prepared in ddH2O at a concentration of 50 mg/ml and kept at −80° C.), SEQ ID NO:1 was diluted with saline to achieve a final target concentration of 1 or 2.5 mg/ml on the first day of dosing. Enough SEQ ID NO:1 was diluted so that the compound could be administered by bolus infusion into the tail vein every other day for the duration of the experiment. Recombinant interferon alfa-2b (ntron A™) was employed according to the dose and treatment schedules below. The treatments were started 20 days after the tumour cell inoculation when the tumour size reached an approximate volume of 200 mm^3. Each treatment group contained 10 tumour-bearing mice. Routes of administration are as follows: intravenous (i.v.) and intratumoural (i.t.).
• 1. Saline treated group-1: saline 0.1 ml/mouse/48 hours, i.v., n=10 • 2. Saline treated group-2: saline 0.05 ml/mouse/5 days/week, i.t., n=10 • 3. SEQ ID NO:1 treated group: 1 mg/kg/48 hours in 0.1 ml saline, i.v. n=10 • 4. SEQ ID NO:1 treated group: 2.5 mg/kg/48 hours in 0.1 ml saline, i.v., n=10 • 5. […]
Treatment started from day 20 after inoculation of human renal tumour cells. […]
as §1, with “growth was” for “growth were”, “day 20” for “day 7”, “measured. […]” for “measured.”

[6] = Example 4, oligonucleotide 2.5 mg/kg every 2 days i.v., Intron A 10^5 unit 5 days/week i.t.

Q: For `O=c1[nH]cc(F)c(=O)[nH]1` [5-FU, 5-fluorouracil, reference compound], which “Tumour weight as % of saline control” value [1] is on record?
A: Its value is 52%.

Q: Which “Tumour weight as % of saline control” value ([2]; MDA-MB-231 (breast), Mouse CD-1) does the source give for `COc1cccc2c1C(=O)c1c(O)c3c(c(O)c1C2=O)C[C@@](O)(C(=O)CO)C[C@@H]3O[C@H]1C[C@H](N)[C@H](O)[C@H](C)O1` [Doxorubicin] here?
A: Its value is 41%.

Q: Which “Tumour weight as % of saline control” value ([3]; Hela S3 (cervix), hydroxyurea resistance, SCID) does the source give for `NC(=O)NO` [Hydroxyurea (HU), Hydroxyurea, reference compound] here?
A: Its value is 92%.

Q: And the “antitumour effect (tumour volume)” value ([3]; SEQ ID NO:1 10 mg/kg 6 times, Hydroxyurea 250 mg/kg i.p. 10 days, Cisplatin 4 mg/kg i.v. weekly)?
A: Its value is “ineffective”.

Q: “ACGCACTCAGCTAGTGACAC (listed as DNA, chemistry not given here) [SEQ ID NO:3, reference compound]” was tested. Which “effect on the efficacy of Intron A” value ([4]; Example 4, SEQ ID NO:3 2.5 mg/kg plus Intron A 10^5) did it give?
A: Its value is “did not improve the efficacy of Intron A”.

Q: What about the “anti-tumour efficacy (tumour volume, tumour weight)” value (from here on “anti-tumour efficacy”) [4, 6] of the same compound?
A: The value was “no efficacy as a monotherapy”.

Q: What about the “antitumour effect (tumour weight, tumour volume)” value ([2]; oligonucleotide 10 mg/kg every other day i.v., taxol 10 mg/kg, doxorubicin 5 mg/kg i.v. once a week) of the same compound?
A: The value was “no significant anti-tumour activity as a monotherapy; also recorded: does not cooperate with doxorubicin”.

Q: “Recombinant interferon alfa-2b [Intron A]” was tested. Which “anti-tumour efficacy” value ([4]; Example 2, SEQ ID NO:1 1 or 2.5 mg/kg/48 hours i.v., Intron A 10^3 or 10^5 unit 5 days/week i.t.) did it give?
A: The value was “significant anti-tumour efficacy”.

Q: What about the “anti-tumour efficacy” value ([4]; Example 3, SEQ ID NO:1 2.5 or 5 mg/kg every 2 days i.v., Intron 10^5 unit 5 days/week i.t.) of the same compound?
A: The value was “significant anti-tumour efficacy”.

Q: And the “anti-tumour efficacy” value [4, 6]?
A: The value was “significant anti-tumour efficacy”.

Q: What about the “efficacy in combination with SEQ ID NO:1, subcutaneous versus intratumoural” value ([4]; Example 5, SEQ ID NO:1 2.5 mg/kg/2 days i.v. plus 100000 units Intron A x3/week s.c. or i.t.) of the same compound?
A: The value was “equally effective”.

Q: And the “anti-tumour efficacy” value ([5]; Example 6, SEQ ID NO:1 1 or 2.5 mg/kg/48 hours i.v., Intron A 10^3 or 10^5 unit 5 days/week i.t.)?
A: The value was “significant anti-tumour efficacy”.

Q: And the “anti-tumour efficacy” value ([5]; Example 7, SEQ ID NO:1 2.5 mg/kg/2ds i.v., 10000 units Intron A x5/week for 2 weeks i.t.)?
A: The value was “significant anti-tumour efficacy”.
